Results from patent publication US20210127673A1, “HERBICIDES” (SYNGENTA PARTICIPATIONS AG, priority 2016, published 2021).

Columns and labels:
Format in all cases: in vivo
Details in all cases: 1000 g/ha, evaluated after 13 days
[1] = system: Triticum aestivium (TRZAW); assay: Pre-emergence herbicidal activity, Triticum aestivium; set-up: key: 5=total damage to plant; 0=no damage to plant
Summary of the method: (§1)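 Pots of seeds were sprayed one day after sowing (pre-emergence) with compound in acetone/water (50:50) plus 0.5% Tween 20, then grown in a glasshouse at 24/16 °C day/night, 14 h light, 65% humidity. Damage scored 0–5 (5 = total damage) after 13 days.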

Avena fatua (AVEFA) [2] = assay: Pre-emergence herbicidal activity, Avena fatua
Summary of the method: as §1

[3] = system: Alopecurus myosuroides (ALOMY); assay: Pre-emergence herbicidal activity, Alopecurus myosuroides; set-up: key: 5=total damage to plant; 0=no damage to plant
Summary of the method: as §1

[4] = system: Echinochloa crus-galli (ECHCG); assay: Pre-emergence herbicidal activity, Echinochloa crus-galli
Summary of the method: as §1

Lolium perenne (LOLPE) [5] = assay: Pre-emergence herbicidal activity, Lolium perenne; set-up: key: 5=total damage to plant; 0=no damage to plant
Summary of the method: as §1

Setaria faberi (SETFA) [6] = assay: Pre-emergence herbicidal activity, Setaria faberi; set-up: key: 5=total damage to plant; 0=no damage to plant
Summary of the method: as §1

[7] = system: Triticum aestivium (TRZAW); assay: Post-emergence herbicidal activity, Triticum aestivium; set-up: key: 5=total damage to plant; 0=no damage to plant
Summary of the method: (§2)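 Scoring runs 0 (no damage) to 5 (total damage), assessed 13 days after treatment. Seedlings 8 days post-sowing received an aqueous spray from acetone/water 50:50 with 0.5% Tween 20, then were kept at 24/16 °C, 14 h light, 65% humidity and watered twice daily.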

Avena fatua (AVEFA) [8] = assay: Post-emergence herbicidal activity, Avena fatua
Summary of the method: as §2

[9] = system: Alopecurus myosuroides (ALOMY); assay: Post-emergence herbicidal activity, Alopecurus myosuroides; set-up: key: 5=total damage to plant; 0=no damage to plant
Summary of the method: as §2

[10] = system: Echinochloa crus-galli (ECHCG); assay: Post-emergence herbicidal activity, Echinochloa crus-galli; set-up: key: 5=total damage to plant; 0=no damage to plant
Summary of the method: as §2

Lolium perenne (LOLPE) [11] = assay: Post-emergence herbicidal activity, Lolium perenne
Summary of the method: as §2

Setaria faberi (SETFA) [12] = assay: Post-emergence herbicidal activity, Setaria faberi; set-up: key: 5=total damage to plant; 0=no damage to plant
Summary of the method: as §2

SMILES: CNC(=O)Nc1ccc(-c2cncc(F)c2)nc1C(F)(F)F [Compound B49]
- Control of TRAZW after pre-emergence application (score 0-5) [1]: 0
- Control of AVEFA after pre-emergence application (score 0-5) (Avena fatua (AVEFA) [2]): 2
- Control of ALOMY after pre-emergence application (score 0-5) [3]: 0
- Control of ECHCG after pre-emergence application (score 0-5) [4]: 3
- Control of LOLPE after pre-emergence application (score 0-5) (Lolium perenne (LOLPE) [5]): 0
- Control of SETFA after pre-emergence application (score 0-5) (Setaria faberi (SETFA) [6]): 4
- Control of TRAZW after post-emergence application (score 0-5) [7]: 0
- Control of AVEFA after post-emergence application (score 0-5) (Avena fatua (AVEFA) [8]): 2
- Control of ALOMY after post-emergence application (score 0-5) [9]: 0
- Control of ECHCG after post-emergence application (score 0-5) [10]: 4
- Control of LOLPE after post-emergence application (score 0-5) (Lolium perenne (LOLPE) [11]): 2
- Control of SETFA after post-emergence application (score 0-5) (Setaria faberi (SETFA) [12]): 4

SMILES: O=C(Nc1ccc(-c2cncc(F)c2)nc1C(F)(F)F)NC1CCCC1 [Compound B50]
- Control of TRAZW after pre-emergence application (score 0-5) [1]: 0
- Control of AVEFA after pre-emergence application (score 0-5) (Avena fatua (AVEFA) [2]): 1
- Control of ALOMY after pre-emergence application (score 0-5) [3]: 0
- Control of ECHCG after pre-emergence application (score 0-5) [4]: 2
- Control of LOLPE after pre-emergence application (score 0-5) (Lolium perenne (LOLPE) [5]): 1
- Control of SETFA after pre-emergence application (score 0-5) (Setaria faberi (SETFA) [6]): 4
- Control of TRAZW after post-emergence application (score 0-5) [7]: 0
- Control of AVEFA after post-emergence application (score 0-5) (Avena fatua (AVEFA) [8]): 3
- Control of ALOMY after post-emergence application (score 0-5) [9]: 0
- Control of ECHCG after post-emergence application (score 0-5) [10]: 4
- Control of LOLPE after post-emergence application (score 0-5) (Lolium perenne (LOLPE) [11]): 1
- Control of SETFA after post-emergence application (score 0-5) (Setaria faberi (SETFA) [12]): 5

SMILES: O=C(Nc1ccc(-c2cncc(F)c2)nc1C(F)(F)F)N1CCCCC1 [Compound B51]
- Control of TRAZW after pre-emergence application (score 0-5) [1]: 0
- Control of AVEFA after pre-emergence application (score 0-5) (Avena fatua (AVEFA) [2]): 1
- Control of ALOMY after pre-emergence application (score 0-5) [3]: 0
- Control of ECHCG after pre-emergence application (score 0-5) [4]: 2
- Control of LOLPE after pre-emergence application (score 0-5) (Lolium perenne (LOLPE) [5]): 1
- Control of SETFA after pre-emergence application (score 0-5) (Setaria faberi (SETFA) [6]): 5
- Control of TRAZW after post-emergence application (score 0-5) [7]: 0
- Control of AVEFA after post-emergence application (score 0-5) (Avena fatua (AVEFA) [8]): 3
- Control of ALOMY after post-emergence application (score 0-5) [9]: 0
- Control of ECHCG after post-emergence application (score 0-5) [10]: 4
- Control of LOLPE after post-emergence application (score 0-5) (Lolium perenne (LOLPE) [11]): 3
- Control of SETFA after post-emergence application (score 0-5) (Setaria faberi (SETFA) [12]): 5

SMILES: O=C(Nc1ccc(-c2cncc(F)c2)nc1C(F)(F)F)OCc1ccccc1 [Compound B53]
- Control of TRAZW after pre-emergence application (score 0-5) [1]: 0
- Control of AVEFA after pre-emergence application (score 0-5) (Avena fatua (AVEFA) [2]): 1
- Control of ALOMY after pre-emergence application (score 0-5) [3]: 0
- Control of ECHCG after pre-emergence application (score 0-5) [4]: 2
- Control of LOLPE after pre-emergence application (score 0-5) (Lolium perenne (LOLPE) [5]): 1
- Control of SETFA after pre-emergence application (score 0-5) (Setaria faberi (SETFA) [6]): 4
- Control of TRAZW after post-emergence application (score 0-5) [7]: 1
- Control of AVEFA after post-emergence application (score 0-5) (Avena fatua (AVEFA) [8]): 4
- Control of ALOMY after post-emergence application (score 0-5) [9]: 1
- Control of ECHCG after post-emergence application (score 0-5) [10]: 5
- Control of LOLPE after post-emergence application (score 0-5) (Lolium perenne (LOLPE) [11]): 2
- Control of SETFA after post-emergence application (score 0-5) (Setaria faberi (SETFA) [12]): 5

SMILES: O=C(Nc1ccc(-c2cncc(F)c2)nc1C(F)(F)F)N1CCSCC1 [Compound B54]
- Control of TRAZW after pre-emergence application (score 0-5) [1]: 0
- Control of AVEFA after pre-emergence application (score 0-5) (Avena fatua (AVEFA) [2]): 2
- Control of ALOMY after pre-emergence application (score 0-5) [3]: 0
- Control of ECHCG after pre-emergence application (score 0-5) [4]: 3
- Control of LOLPE after pre-emergence application (score 0-5) (Lolium perenne (LOLPE) [5]): 1
- Control of SETFA after pre-emergence application (score 0-5) (Setaria faberi (SETFA) [6]): 3
- Control of TRAZW after post-emergence application (score 0-5) [7]: 1
- Control of AVEFA after post-emergence application (score 0-5) (Avena fatua (AVEFA) [8]): 4
- Control of ALOMY after post-emergence application (score 0-5) [9]: 1
- Control of ECHCG after post-emergence application (score 0-5) [10]: 4
- Control of LOLPE after post-emergence application (score 0-5) (Lolium perenne (LOLPE) [11]): 3
- Control of SETFA after post-emergence application (score 0-5) (Setaria faberi (SETFA) [12]): 4

SMILES: O=C(Nc1ccc(-c2cncnc2)nc1C(F)(F)F)N1CCOCC1 [Compound B55]
- Control of TRAZW after pre-emergence application (score 0-5) [1]: 0
- Control of AVEFA after pre-emergence application (score 0-5) (Avena fatua (AVEFA) [2]): 1
- Control of ALOMY after pre-emergence application (score 0-5) [3]: 0
- Control of ECHCG after pre-emergence application (score 0-5) [4]: 1
- Control of LOLPE after pre-emergence application (score 0-5) (Lolium perenne (LOLPE) [5]): 0
- Control of SETFA after pre-emergence application (score 0-5) (Setaria faberi (SETFA) [6]): 1
- Control of TRAZW after post-emergence application (score 0-5) [7]: 0
- Control of AVEFA after post-emergence application (score 0-5) (Avena fatua (AVEFA) [8]): 2
- Control of ALOMY after post-emergence application (score 0-5) [9]: 0
- Control of ECHCG after post-emergence application (score 0-5) [10]: 3
- Control of LOLPE after post-emergence application (score 0-5) (Lolium perenne (LOLPE) [11]): 1
- Control of SETFA after post-emergence application (score 0-5) (Setaria faberi (SETFA) [12]): 4

SMILES: CCC(C)OC(=O)Nc1ccc(-c2cncc(F)c2)nc1C(F)(F)F (stereo not drawn) [Compound B56]
- Control of TRAZW after pre-emergence application (score 0-5) [1]: 0
- Control of AVEFA after pre-emergence application (score 0-5) (Avena fatua (AVEFA) [2]): 1
- Control of ALOMY after pre-emergence application (score 0-5) [3]: 0
- Control of ECHCG after pre-emergence application (score 0-5) [4]: 1
- Control of LOLPE after pre-emergence application (score 0-5) (Lolium perenne (LOLPE) [5]): 0
- Control of SETFA after pre-emergence application (score 0-5) (Setaria faberi (SETFA) [6]): 2
- Control of TRAZW after post-emergence application (score 0-5) [7]: 0
- Control of AVEFA after post-emergence application (score 0-5) (Avena fatua (AVEFA) [8]): 3
- Control of ALOMY after post-emergence application (score 0-5) [9]: 0
- Control of ECHCG after post-emergence application (score 0-5) [10]: 4
- Control of LOLPE after post-emergence application (score 0-5) (Lolium perenne (LOLPE) [11]): 3
- Control of SETFA after post-emergence application (score 0-5) (Setaria faberi (SETFA) [12]): 4

SMILES: O=C(Nc1ccc(-c2cncc(F)c2)nc1C(F)(F)F)OCC(F)(F)F [Compound B57]
- Control of TRAZW after pre-emergence application (score 0-5) [1]: 0
- Control of AVEFA after pre-emergence application (score 0-5) (Avena fatua (AVEFA) [2]): 1
- Control of ALOMY after pre-emergence application (score 0-5) [3]: 0
- Control of ECHCG after pre-emergence application (score 0-5) [4]: 2
- Control of LOLPE after pre-emergence application (score 0-5) (Lolium perenne (LOLPE) [5]): 1
- Control of SETFA after pre-emergence application (score 0-5) (Setaria faberi (SETFA) [6]): 3
- Control of TRAZW after post-emergence application (score 0-5) [7]: 0
- Control of AVEFA after post-emergence application (score 0-5) (Avena fatua (AVEFA) [8]): 3
- Control of ALOMY after post-emergence application (score 0-5) [9]: 0
- Control of ECHCG after post-emergence application (score 0-5) [10]: 4
- Control of LOLPE after post-emergence application (score 0-5) (Lolium perenne (LOLPE) [11]): 2
- Control of SETFA after post-emergence application (score 0-5) (Setaria faberi (SETFA) [12]): 3

SMILES: CCCCOC(=O)Nc1ccc(-c2cncc(F)c2)nc1C(F)(F)F [Compound B58]
- Control of TRAZW after pre-emergence application (score 0-5) [1]: 0
- Control of AVEFA after pre-emergence application (score 0-5) (Avena fatua (AVEFA) [2]): 1
- Control of ALOMY after pre-emergence application (score 0-5) [3]: 0
- Control of ECHCG after pre-emergence application (score 0-5) [4]: 2
- Control of LOLPE after pre-emergence application (score 0-5) (Lolium perenne (LOLPE) [5]): 1
- Control of SETFA after pre-emergence application (score 0-5) (Setaria faberi (SETFA) [6]): 2
- Control of TRAZW after post-emergence application (score 0-5) [7]: 0
- Control of AVEFA after post-emergence application (score 0-5) (Avena fatua (AVEFA) [8]): 2
- Control of ALOMY after post-emergence application (score 0-5) [9]: 0
- Control of ECHCG after post-emergence application (score 0-5) [10]: 3
- Control of LOLPE after post-emergence application (score 0-5) (Lolium perenne (LOLPE) [11]): 2
- Control of SETFA after post-emergence application (score 0-5) (Setaria faberi (SETFA) [12]): 5

SMILES: COCCOC(=O)Nc1ccc(-c2cncc(F)c2)nc1C(F)(F)F [Compound B59]
- Control of TRAZW after pre-emergence application (score 0-5) [1]: 0
- Control of AVEFA after pre-emergence application (score 0-5) (Avena fatua (AVEFA) [2]): 2
- Control of ALOMY after pre-emergence application (score 0-5) [3]: 1
- Control of ECHCG after pre-emergence application (score 0-5) [4]: 4
- Control of LOLPE after pre-emergence application (score 0-5) (Lolium perenne (LOLPE) [5]): 2
- Control of SETFA after pre-emergence application (score 0-5) (Setaria faberi (SETFA) [6]): 3
- Control of TRAZW after post-emergence application (score 0-5) [7]: 1
- Control of AVEFA after post-emergence application (score 0-5) (Avena fatua (AVEFA) [8]): 3
- Control of ALOMY after post-emergence application (score 0-5) [9]: 1
- Control of ECHCG after post-emergence application (score 0-5) [10]: 5
- Control of LOLPE after post-emergence application (score 0-5) (Lolium perenne (LOLPE) [11]): 3
- Control of SETFA after post-emergence application (score 0-5) (Setaria faberi (SETFA) [12]): 4
